# Experimental data from patent publication US8609810B2, “Methylglyoxal-scavenging compounds and their use for the prevention and treatment of pain and/or hyperalgesia” (Ruprecht-Karls-Universitat Heidelberg, priority 2009, dated 2013).
# Where no end group is shown, it is not given here.
# Legend:
# healthy wild-type mice = test: Exogenous methylglyoxal induces thermal hyperalgesia in vivo (hot plate)
# Procedure: Hyperalgesia was studied using the hot-plate assay with an electronically controlled hot-plate analgesia meter (Columbus Instructments, Columbus, Ohio) at 50° C.. Each mouse was removed from the hot plate when a jumping escape response occurred or hind paws were licked, or after a maximal cut-off time of 60 seconds. […] Three measurements were taken per animal at each of the specified time points and averaged. The difference in latency times between control and treated animals, was calculated as a measure of hyperalgesia. Healthy wild-type mice (Male; 10-12 weeks) were treated with various concentrations of methylglyoxal (0.7 μM-700 μM) by intravenous injection as 0.9% NaCl solution. Control groups were injected with 0.9% NaCl solution. After 3 hrs incubation time, hyperalgesia was assessed.
# [1] = Plasma methylglyoxal measurement after i.v. injection of MG (HPLC); assay type: in vivo, mice; conditions: male, wild-type, mouse, iv, 5 μg MG i.v., within 10 min, read-out: plasma MG levels
# Procedure: (B) 5 μg ([…]) MG was administered by i. v. injection as 0.9% NaCl solution to male healthy wild-type mice (10-12 weeks old) and MG-plasma concentrations were determined by HPLC at time point Oh, 10 min, 30 min, 1 h and 3 h. Data represent mean±SD (n=3 per time point).
# (§1) The concentration of methylglyoxal in mouse plasma samples was determined by derivatization with 1,2-diamino-4,5-dimethoxybenezene using a previously described method. Blood samples were drawn into EDTA containing tubes from the retrobulbar vessels at time of sacrifice and centrifuged (2000 g; 5 mins). Plasma was removed and acidified with 10% TCA (0.1 ml). Samples were either analyzed immediately or stored at −80° C.
# glyoxalase-I = molecular target: T1, glyoxalase-I (Mus musculus, UniProt Q9CPU0); test: In vivo inhibition of Glyoxalase I in healthy wild-type mice
# T1 construct: Healthy wild-type mice (Male); from tissue
# T1 sequence (Q9CPU0 2-184 limits assumed): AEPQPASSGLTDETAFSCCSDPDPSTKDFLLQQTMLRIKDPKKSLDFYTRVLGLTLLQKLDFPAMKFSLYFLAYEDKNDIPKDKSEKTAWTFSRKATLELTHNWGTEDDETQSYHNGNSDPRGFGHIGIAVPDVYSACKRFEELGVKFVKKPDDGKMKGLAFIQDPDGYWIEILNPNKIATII
# Procedure: (A) Inhibition of Glyoxalase I by the cell permeable inhibitor S-p-Bromobenzylglutathione Cyclopentyl diester in male healthy wild-type mice (10-12 weeks old). Hyperalgesia was assessed by the hot plate assay at day 0 before application of the inhibitor. Thereafter, consecutive assessments of thermal hyperalgesia were made at selected time points (black circles), at which some mice also were sacrificed and plasma isolated for the determination of MG concentration (open circles). Data represent mean±SD (n=3 per time point). Different approaches were utilized to verify the hypothesized threshold-dependent effect of the MG/glyoxalase-system on hyperalgesia.
# (§2) Hyperalgesia was studied using the hot-plate assay with an electronically controlled hot-plate analgesia meter (Columbus Instructments, Columbus, Ohio) at 50° C.. Each mouse was removed from the hot plate when a jumping escape response occurred or hind paws were licked, or after a maximal cut-off time of 60 seconds. […] Three measurements were taken per animal at each of the specified time points and averaged. The difference in latency times between control and treated animals, was calculated as a measure of hyperalgesia.
# as §1
# Healthy wild-type mice (Male; 10-12 weeks) were pretreated for 48 hrs with 50 μg/g (i.p) of the cell permeable Glyoxalase I inhibitor, S-p-Bromobenzylglutathioine Cyclopentyl diester. After 48 hrs, hyperalgesia was assessed. Mice were then treated every 2nd day for a period of 15 days, during which consecutive assessments of hyperalgesia were made. At selected time points, mice sacrificed, and plasma isolated for determination of methylglyoxal concentration.
# [2] = tested on: methylglyoxal-induced hyperalgesia in healthy wild-type mice; test: Methylglyoxal-induced hyperalgesia, hot-plate assay (in vivo scavenging of methylglyoxal); conditions: 1 mg i.p., MG 70 μM, FIG. 6A
# Procedure: Healthy wildtype mice (10-12 weeks), were injected with 1 mg GERP (≡1.096×1015 Arg residues) or control peptide GEAP; i.p. 30 mins prior to injection with methylglyoxal (MG; 70 μM). Hyperalgesia was assessed 3 hrs after i.p injection by hot-plate assay. Data represent mean±SEM (N=10). GERP reduced methylglyoxal-induced hyperalgesia by ca. 60% in healthy wildtype mice, whereas the control peptide had no effect, showing that scavanging of methylglyoxal reduced hyperalgesia.
# as §2
# A synthetic peptide, GERP001, containing ten arginine residues per molecule act as an effective in vivo scavenger of methylglyoxal was designed in house and synthesized (GenWay Biotech, Inc. San Diego, Calif., USA). […] Hyperalgesia was assessed 3 hrs after administration of methylglyoxal.
# [3] = tested on: diabetes induced hyperalgesia in diabetic wild-type mice; test: Diabetes induced hyperalgesia, hot-plate assay in STZ-induced diabetic wild-type mice; assay type: in vivo
# Procedure: Diabetic wildtype mice (Male; 18 wks) were injected with either 1 mg GERP or GEAP i.p. Following 1 day of treatment with either peptide, treatment was discontinued, after which consecutive measurements of hyperalgesia were performed to determine biological half-life of the peptide. This was determined to be ca. 80 hrs. Data represent the mean±SEM (N=10), ***P<0.0001, **P<0.001, *P<0.05, NSP>0.05 vs. GERP or GEAP control at respective time point; 000P<0.0001, NSP>0.05 vs. day 0.
# Diabetes was induced by i.p. administration of STZ at 60 mg/kg, freshly dissolved in sterile sodium citrate (0.05M, pH4.5) on 6 subsequent days. Control animals received sodium citrate only. Diabetes was verified 16-25 days later by measurement of blood glucose levels in samples from the tail vein using ACCU-CHEK glucose sticks and a conventional Accutrend glucometer. In the first 2 weeks following the onset of diabetes, blood glucose was measured daily. If glucose levels occasionally recovered, an additional STZ injection was given on day 25-27. More than 90% of mice became diabetic within the first 4 weeks and were used throughout the experiment. As soon as blood glucose increased above 300 mg/dl, individual supplementation with 1-2 U Insulin Semilenta (40 U/ml) was started. Once glucose levels had stabilized, blood glucose was determined at least once a week for the first 2 months, and thereafter every second week. Tight blood glucose control kept individual blood glucose level stable throughout the experiments. At the end of the experiments, mice were sacrificed with CO2, and both sciatic nerves dissected, weighed and snap-frozen in liquid nitrogen.
# as §2
# To determine the effect of GERP on diabetes induced hyperalgesia, STZ-induced diabetic wild-type mice (Male; 18 wks) were injected intraperitioneal with either 1 mg of GERP001 or GEAP. After 24 hrs, hyperalgesia was assessed by hotplate assay.
molecule,measurement,setting,value
"CC(=O)C=O [MG, 2-oxo-propanal]",persistence of MG-induced changes resulting in hyperalgesia,"healthy wild-type mice; after MG application, data not shown",more than 3 hours
same,plasma MG level needed for dose-dependent hyperalgesia (threshold concentration),healthy wild-type mice; plasma MG at 15 min after MG application,exceeded 600 nM
same,induction of heat hyperalgesia,"healthy wild-type mice; systemic (i.v.) MG, 3 h after MG injection, hot plate",significant and dose-dependent induction of heat hyperalgesia
same,concentration at 10 min,[1],> 800 nM
NC(CCC(=O)NC(CSCc1ccc(Br)cc1)C(=O)NCC(=O)OC1CCCC1)C(=O)OC1CCCC1 (stereo not drawn) [S-p-Bromobenzylglutathione Cyclopentyl diester],glyoxalase-I enzymatic activity,"glyoxalase-I; 3 days after continuous inhibitor administration, injected every second day",fully inhibited
same,MG plasma concentration,glyoxalase-I; 6 days after initiation of treatment,exceeded 600 nM
same,thermal hyperalgesia,"glyoxalase-I; 6 days after initiation of treatment, hot plate",significant thermal hyperalgesia
GEAP: a control peptide in which the arginine residues were substituted for alanine (HHHHHHGGGGGEPGEPGEPGEPGEPGEPGEPGEPGEPGEP; GEAP motif containing peptide),effect on thermal hyperalgesia in MG-treated healthy wild-type mice,[2],no effect
same,effect on thermal hyperalgesia in diabetic mice,"[3]; mice after 8 weeks of diabetes with manifest hyperalgesia, 1 mg i.p., FIG. 6C",no effect
HHHHHHGGGGGERPGERPGERPGERPGERPGERPGERPGERPGERPGERP [GERP001],physiological / biological effective half-life,"[3]; diabetic mice, 1 mg i.p., after treatment discontinued, regression analysis, linear decay model",ca. 80 hrs
same,biological effective half-life (preliminary experiments),"[3]; preliminary experiments, data fitted to an exponential decay (R2=0.9734)",ca. 13 hrs
same,half-life of the effect of a single injection,[3]; single injection (1 mg),80 h
